The source made the active and inactive calls. No cut-off for these calls is given here.
What was measured:
MM.1R [1] = test: Antiproliferative activity against human MM1.R cells with siRNA mediated IRF4 knockdown measured upto 5 days by MTS assay; assay type: functional, cell-based; conditions: time <= 5.0 day
MM.1R [2] = test: Antiproliferative activity against human MM1.R cells with siRNA mediated IRF4#1 knockdown at 0.125 to 1 uM measured upto 5 days by MTS assay; assay type: functional, cell-based; conditions: dose 0.125-1 µM, time <= 5.0 day
MM.1R [3] = test: Antiproliferative activity against human MM1.R cells with siRNA mediated IRF4#2 knockdown at 0.125 to 1 uM measured upto 5 days by MTS assay; assay type: functional, cell-based; conditions: dose 0.125-1 µM, time <= 5.0 day
NCI-H929 [4] = test: Antiproliferative activity against human NCI-H929 cells with siRNA mediated IRF4#1 knockdown at 0.125 to 1 uM measured upto 5 days by MTS assay; assay type: functional, cell-based; conditions: dose 0.125-1 µM, time <= 5.0 day
NCI-H929 [5] = test: Antiproliferative activity against human NCI-H929 cells with siRNA mediated IRF4#2 knockdown at 0.125 to 1 uM measured upto 5 days by MTS assay; assay type: functional, cell-based; conditions: dose 0.125-1 µM, time <= 5.0 day
NCI-H929 [6] = test: Effect on IRF4 expression in human NCI-H929 cells by Western blot analysis; assay type: functional, cell-based
[7] = Potency index, ratio of IC50 for lenalidomide to test compound IC50 for antiproliferative activity against human NCI-H929 cells assessed as inhibition of cell growth measured after 72 hrs by MTS assay; assay type: functional
NCI-H929 [8] = test: Antiproliferative activity against human NCI-H929 cells assessed as inhibition of 3D clone forming ability measured after 2 to 3 weeks; assay type: functional, cell-based; conditions: dose 0.125-1 µM, time 2-3 weeks
MM.1R [9] = test: Antiproliferative activity against human MM1.R cells assessed as inhibition of 3D clone forming ability measured after 2 to 3 weeks; assay type: functional, cell-based; conditions: dose 0.125-1 µM, time 2-3 weeks
NCI-H929 [10] = test: Downregulation of CCNC expression in human NCI-H929 cells measured after 24 hrs by qRT-PCR analysis; assay type: functional, cell-based; conditions: dose 0.125-1 µM
NCI-H929 [11] = test: Downregulation of CANX expression in human NCI-H929 cells measured after 24 hrs by qRT-PCR analysis; assay type: functional, cell-based; conditions: dose 0.125-1 µM
NCI-H929 [12] = test: Downregulation of E2F5 expression in human NCI-H929 cells measured after 24 hrs by qRT-PCR analysis; assay type: functional, cell-based; conditions: dose 0.125-1 µM
MM.1R [13] = test: Downregulation of CCNC expression in human MM1.R cells measured after 24 hrs by qRT-PCR analysis; assay type: functional, cell-based; conditions: dose 0.125-1 µM
MM.1R [14] = test: Downregulation of E2F5 expression in human MM1.R cells measured after 24 hrs by qRT-PCR analysis; assay type: functional, cell-based; conditions: dose 0.125-1 µM
MM.1R [15] = test: Downregulation of CMYC expression in human MM1.R cells measured after 24 hrs by qRT-PCR analysis; assay type: functional, cell-based; conditions: dose 0.125-1 µM
MM.1R [16] = test: Downregulation of Blimp1 expression in human MM1.R cells measured after 24 hrs by qRT-PCR analysis; assay type: functional, cell-based; conditions: dose 0.125-1 µM
NCI-H929 [17] = test: Inhibition of AKT phosphorylation level in human NCI-H929 cells at 0.1 to 1 uM by Western blot analysis; assay type: functional, cell-based; conditions: dose 0.1-1 µM
NCI-H929 [18] = test: Induction of DNA damage in human NCI-H929 cells assessed as increase in gammaH2AX expression at 0.1 to 1 uM by Western blot analysis; assay type: functional, cell-based; conditions: dose 0.1-1 µM
MM.1R [19] = test: Induction of DNA damage in human MM1.R cells assessed as increase in gammaH2AX expression at 0.1 to 1 uM by Western blot analysis; assay type: functional, cell-based; conditions: dose 0.1-1 µM
NCI-H929 [20] = test: Induction of cell cycle arrest in human NCI-H929 cells assessed as accumulation of cells at G1 phase measured after 24 hrs by flow cytometry analysis; assay type: functional, cell-based; conditions: dose 0.125-0.5 µM
NCI-H929 [21] = test: Induction of cell cycle arrest in human NCI-H929 cells assessed as accumulation of cells at S phase at 0.125 uM measured after 24 hrs by flow cytometry analysis (reference value: 32.14%); assay type: functional
NCI-H929 [22] = test: Induction of cell cycle arrest in human NCI-H929 cells assessed as inhibition of CDC2 protein expression at 0.1 to 1 uM; assay type: functional, cell-based; conditions: dose 0.1-1 µM
MM.1R [23] = test: Induction of cell cycle arrest in human MM1.R cells assessed as inhibition of cyclin E1 protein expression at 0.1 to 1 uM; assay type: functional, cell-based; conditions: dose 0.1-1 µM
NCI-H929 [24] = test: Antitumor activity against human NCI-H929 cells xenografted in Balb/C nude mouse model assessed as reduction in Ki67 expression at 25 mg/kg by immunohistochemical staining based analysis; assay type: functional, organism-based
NCI-H929 [25] = test: Antitumor activity against human NCI-H929 cells xenografted in Balb/C nude mouse model assessed as increase in gammaH2AX expression at 25 mg/kg by Western blot analysis; assay type: functional, organism-based
NCI-H929 [26] = test: Antitumor activity against human NCI-H929 cells xenografted in Balb/C nude mouse model assessed as inhibition of […] expression at 25 mg/kg by Western blot analysis; assay type: functional, organism-based
[27] = target: T1, Interferon regulatory factor 4 (Homo sapiens, UniProt Q15306); test: Inhibition of IRF4 (unknown origin) incubated for 1 hr by fluorescence polarization assay
T1 sequence (Q15306 whole entry): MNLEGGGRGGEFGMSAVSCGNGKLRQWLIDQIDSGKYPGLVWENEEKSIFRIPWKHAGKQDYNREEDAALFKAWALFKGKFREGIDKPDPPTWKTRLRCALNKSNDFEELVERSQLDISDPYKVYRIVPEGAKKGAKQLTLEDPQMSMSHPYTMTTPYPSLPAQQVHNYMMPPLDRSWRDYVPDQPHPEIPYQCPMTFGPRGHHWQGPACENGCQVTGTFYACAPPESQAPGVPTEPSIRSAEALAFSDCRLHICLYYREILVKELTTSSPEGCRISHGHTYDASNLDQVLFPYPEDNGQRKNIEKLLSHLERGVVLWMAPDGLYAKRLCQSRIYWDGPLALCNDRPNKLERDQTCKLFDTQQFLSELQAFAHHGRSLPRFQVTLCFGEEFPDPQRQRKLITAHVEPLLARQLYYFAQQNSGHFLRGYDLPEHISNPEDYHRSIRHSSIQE

[28] = Antiproliferative activity against human MM1.R cells assessed as inhibition of cell viability measured after 72 hrs by MTS assay; assay type: functional, cell-based; conditions: MM.1R
RPMI-8226 = test: Antiproliferative activity against human RPMI-8226 cells assessed as inhibition of cell viability measured after 72 hrs by MTS assay; assay type: functional, cell-based; conditions: RPMI-8226, 72 h
[29] = Antiproliferative activity against human HaCaT cells assessed as inhibition of cell viability measured after 72 hrs by MTS assay; assay type: toxicity, cell-based
[30] = Selectivity ratio IC50 for human RPMI-8226 cells to IC50 for human MM1.R cells; assay type: toxicity
[31] = Tmax in ICR mouse plasma at 1.0 mg/kg, iv; assay type: ADME, organism-based
[32] = AUC (0 to infinity) in ICR mouse plasma at 1.0 mg/kg, iv; assay type: ADME, organism-based
[33] = Apparent volume of distribution in ICR mouse plasma at 1.0 mg/kg, iv; assay type: ADME, organism-based; conditions: read-out: Vz
[34] = Clearance in ICR mouse plasma at 1.0 mg/kg, iv; assay type: ADME, organism-based
[35] = Tmax in ICR mouse plasma at 10 mg/kg, po; assay type: ADME, organism-based
[36] = Cmax in ICR mouse plasma at 10 mg/kg, po; assay type: ADME, organism-based
[37] = Terminal elimination half life in ICR mouse plasma at 10 mg/kg, po; assay type: ADME, organism-based; conditions: read-out: beta t1/2 (converted)
[38] = Oral bioavailability in ICR mouse plasma at 10 mg/kg; assay type: ADME, organism-based

IC50 [27]: 2630 nM
IC50 (RPMI-8226): 1190 nM
Tmax [31]: 4.8 min
AUC(0-inf) [32]: 86 ng·h/mL
Vd [33]: 20.8 L/kg
clearance [34]: 197 mL/min/kg
Tmax [35]: 31.8 min
Cmax [36]: 82 ng/mL
half-life [37]: 403 min
bioavailability [38]: 53.9%
SMILES: COc1ccc(NC(=O)[C@@H](C)[C@H]2CC[C@H]3[C@@H]4C(=O)C=C5C(C)(C)C(=O)C(C#N)=C[C@]5(C)[C@H]4CC[C@]23C)cc1
Activity (MM.1R [1]): Active
Activity (MM.1R [2]): Active
Activity (MM.1R [3]): Active
Activity (NCI-H929 [4]): Active
Activity (NCI-H929 [5]): Active
Activity (NCI-H929 [6]): Active
Ratio IC50 [7]: 30
Activity (NCI-H929 [8]): Dose-dependent-effect
Activity (MM.1R [9]): Dose-dependent-effect
Activity (NCI-H929 [10]): Active
Activity (NCI-H929 [11]): Active
Activity (NCI-H929 [12]): Active
Activity (MM.1R [13]): Active
Activity (MM.1R [14]): Active
Activity (MM.1R [15]): Active
Activity (MM.1R [16]): Active
inhibition (NCI-H929 [17]): Active
Activity (NCI-H929 [18]): Active
Activity (MM.1R [19]): Active
Activity (NCI-H929 [20]): Dose-dependent-effect
Activity (NCI-H929 [21]): 30.67%
Activity (NCI-H929 [22]): Active
Activity (MM.1R [23]): Active
Activity (NCI-H929 [24]): Active
Activity (NCI-H929 [25]): Active
Activity (NCI-H929 [26]): Active
IC50 [28]: 110 nM
IC50 at 72 h [29]: > 100000 nM
Ratio IC50 [30]: 10.8

Reference: ChEMBL document CHEMBL6121019, “Design, synthesis and biological evaluation of bisnoralcohol derivatives as novel IRF4 inhibitors for the treatment of multiple myeloma” (Eur J Med Chem, 2025)
